According to ChEMBL document CHEMBL3297661, “1-Substituted-5-[(3,5-dinitrobenzyl)sulfanyl]-1H-tetrazoles and their isosteric analogs: A new class of selective antitubercular agents active against drug-susceptible and multidrug-resistant mycobacteria” (Eur J Med Chem, 2014):
Converted amounts (≈) assume the structure as drawn.

Experiments:
[1] = Cytotoxicity against MDCK2 cells assessed as cell viability at 30 uM after 48 hrs by MTT assay; type: cell-based, Canis lupus familiaris, MDCK-II; conditions: dog, read-out: Activity
[2] = system: Mycobacterium tuberculosis; assay: Antimycobacterial activity against Mycobacterium tuberculosis CNCTC My 331/88 after 14 days by micromethod; type: functional; conditions: CNCTC My 331/88, 336 h
[3] = system: Pseudomonas aeruginosa; assay: Antibacterial activity against Pseudomonas aeruginosa ATCC 9027 after 24 hrs by broth microdilution method; type: functional; conditions: ATCC 9027, 24 h
[4] = system: Trichophyton mentagrophytes; assay: Antifungal activity against Trichophyton mentagrophytes 445 after 72 hrs by broth microdilution method; type: functional, organism-based; conditions: Trichophyton mentagrophytes, 445, 72 h
[5] = system: Mycobacterium avium; assay: Antimycobacterial activity against Mycobacterium avium CNCTC My 330/88 after 14 days by micromethod; type: functional; conditions: CNCTC My 330/88, 336 h
[6] = system: Trichophyton mentagrophytes; assay: Antifungal activity against Trichophyton mentagrophytes 445 after 120 hrs by broth microdilution method; type: functional, organism-based; conditions: Trichophyton mentagrophytes, 445, 120 h
[7] = system: Enterococcus faecalis; assay: Antibacterial activity against Enterococcus faecalis J 14365/08 after 24 hrs by broth microdilution method; type: functional; conditions: J 14365/08, 24 h
[8] = system: Lichtheimia corymbifera; assay: Antifungal activity against Absidia corymbifera 272 after 24 hrs by broth microdilution method; type: functional, organism-based; conditions: Lichtheimia corymbifera, 272, 24 h
[9] = system: Klebsiella pneumoniae; assay: Antibacterial activity against Klebsiella pneumoniae D 11750/08 after 24 hrs by broth microdilution method; type: functional; conditions: D 11750/08, 24 h
[10] = system: Candida tropicalis; assay: Antifungal activity against Candida tropicalis 156 after 24 hrs by broth microdilution method; type: functional; conditions: Candida tropicalis, 156, 24 h
[11] = system: Pichia kudriavzevii; assay: Antifungal activity against Candida krusei E28 after 24 hrs by broth microdilution method; type: functional; conditions: E28, 24 h
[12] = system: Enterococcus faecalis; assay: Antibacterial activity against Enterococcus faecalis J 14365/08 after 48 hrs by broth microdilution method; type: functional; conditions: J 14365/08, 48 h
[13] = system: Staphylococcus epidermidis; assay: Antibacterial activity against Staphylococcus epidermidis H 6966/08 after 24 hrs by broth microdilution method; type: functional; conditions: H 6966/08, 24 h
[14] = Cytotoxicity against human HuH7 cells assessed as cell viability at 30 uM after 48 hrs by MTT assay; type: cell-based, Huh-7; conditions: read-out: Activity
[15] = system: Pichia kudriavzevii; assay: Antifungal activity against Candida krusei E28 after 48 hrs by broth microdilution method; type: functional; conditions: E28, 48 h
[16] = system: Klebsiella pneumoniae; assay: Antibacterial activity against extended spectrum beta-lactamase producing Klebsiella pneumoniae J 14368/08 after 24 hrs by broth microdilution method; type: functional; conditions: J 14368/08, 24 h
[17] = system: Mycobacterium kansasii; assay: Antimycobacterial activity against Mycobacterium kansasii CNCTC My 235/80 after 21 days by micromethod; type: functional; conditions: CNCTC My 235/80, 504 h
[18] = system: Mycobacterium kansasii; assay: Antimycobacterial activity against Mycobacterium kansasii CNCTC My 235/80 after 7 days by micromethod; type: functional; conditions: CNCTC My 235/80, 168 h
[19] = system: Staphylococcus epidermidis; assay: Antibacterial activity against Staphylococcus epidermidis H 6966/08 after 48 hrs by broth microdilution method; type: functional; conditions: H 6966/08, 48 h
[20] = system: Mycobacterium kansasii; assay: Antimycobacterial activity against Mycobacterium kansasii 6509/96 after 7 days by micromethod; type: functional; conditions: 6509/96, 168 h
[21] = system: Mycobacterium avium; assay: Antimycobacterial activity against Mycobacterium avium CNCTC My 330/88 after 21 days by micromethod; type: functional; conditions: CNCTC My 330/88, 504 h
[22] = system: Escherichia coli; assay: Antibacterial activity against Escherichia coli ATCC 8739 after 48 hrs by broth microdilution method; type: functional; conditions: ATCC 8739, ATCC 8739, 48 h
[23] = system: Pseudomonas aeruginosa; assay: Antibacterial activity against Pseudomonas aeruginosa ATCC 9027 after 48 hrs by broth microdilution method; type: functional; conditions: ATCC 9027, 48 h
[24] = Cytotoxicity against MDCK2 cells assessed as reduction in cell viability after 48 hrs by MTT assay; type: cell-based; conditions: Canis lupus familiaris, MDCK-II
[25] = system: Mycobacterium kansasii; assay: Antimycobacterial activity against Mycobacterium kansasii 6509/96 after 14 days by micromethod; type: functional; conditions: 6509/96, 336 h
[26] = system: Candida albicans; assay: Antifungal activity against Candida albicans ATCC 44859 after 48 hrs by broth microdilution method; type: functional; conditions: ATCC 44859, 48 h
[27] = system: Mycobacterium kansasii; assay: Antimycobacterial activity against Mycobacterium kansasii CNCTC My 235/80 after 14 days by micromethod; type: functional; conditions: CNCTC My 235/80, 336 h
[28] = system: Mycobacterium kansasii; assay: Antimycobacterial activity against Mycobacterium kansasii 6509/96 after 21 days by micromethod; type: functional; conditions: 6509/96, 504 h
[29] = system: Nakaseomyces glabratus; assay: Antifungal activity against Candida glabrata 20/I after 48 hrs by broth microdilution method; type: functional
[30] = system: Mycobacterium tuberculosis; assay: Antimycobacterial activity against Mycobacterium tuberculosis CNCTC My 331/88 after 21 days by micromethod; type: functional; conditions: CNCTC My 331/88, 504 h
[31] = system: Lichtheimia corymbifera; assay: Antifungal activity against Absidia corymbifera 272 after 48 hrs by broth microdilution method; type: functional, organism-based; conditions: Lichtheimia corymbifera, 272, 48 h
[32] = system: Staphylococcus aureus; assay: Antibacterial activity against methicillin-resistant Staphylococcus aureus H 5996/08 after 48 hrs by broth microdilution method; type: functional; conditions: H 5996/08, 48 h
[33] = system: Escherichia coli; assay: Antibacterial activity against Escherichia coli ATCC 8739 after 24 hrs by broth microdilution method; type: functional; conditions: ATCC 8739, ATCC 8739, 24 h
[34] = system: Nakaseomyces glabratus; assay: Antifungal activity against Candida glabrata 20/I after 24 hrs by broth microdilution method; type: functional
[35] = system: Trichosporon asahii; assay: Antifungal activity against Trichosporon asahii 1188 after 48 hrs by broth microdilution method; type: functional; conditions: Trichosporon asahii, 1188, 48 h
[36] = system: HepG2; assay: Cytotoxicity against human HepG2 cells assessed as reduction in cell viability after 48 hrs by MTT assay; type: cell-based; conditions: HepG2, 48 h
[37] = system: Klebsiella pneumoniae; assay: Antibacterial activity against Klebsiella pneumoniae D 11750/08 after 48 hrs by broth microdilution method; type: functional; conditions: D 11750/08, 48 h
[38] = Cytotoxicity against human HuH7 cells assessed as reduction in cell viability after 48 hrs by MTT assay; type: cell-based; conditions: Huh-7, 48 h
[39] = system: Staphylococcus aureus; assay: Antibacterial activity against Staphylococcus aureus ATCC 6538 after 48 hrs by broth microdilution method; type: functional; conditions: ATCC 6538, 48 h
[40] = system: Klebsiella pneumoniae; assay: Antibacterial activity against extended spectrum beta-lactamase producing Klebsiella pneumoniae J 14368/08 after 48 hrs by broth microdilution method; type: functional; conditions: J 14368/08, 48 h
[41] = system: Aspergillus fumigatus; assay: Antifungal activity against Aspergillus fumigatus 231 after 24 hrs by broth microdilution method; type: functional, organism-based; conditions: Aspergillus fumigatus, 231, 24 h
[42] = system: HeLa; assay: Cytotoxicity against human HeLa cells assessed as reduction in cell viability after 48 hrs by MTT assay; type: cell-based
[43] = Cytotoxicity against human HepG2 cells assessed as cell viability at 30 uM after 48 hrs by MTT assay; type: cell-based; conditions: read-out: Activity
[44] = system: Aspergillus fumigatus; assay: Antifungal activity against Aspergillus fumigatus 231 after 48 hrs by broth microdilution method; type: functional, organism-based; conditions: Aspergillus fumigatus, 231, 48 h
[45] = system: Trichosporon asahii; assay: Antifungal activity against Trichosporon asahii 1188 after 24 hrs by broth microdilution method; type: functional; conditions: Trichosporon asahii, 1188, 24 h
[46] = system: Staphylococcus aureus; assay: Antibacterial activity against methicillin-resistant Staphylococcus aureus H 5996/08 after 24 hrs by broth microdilution method; type: functional; conditions: H 5996/08, 24 h
[47] = system: Staphylococcus aureus; assay: Antibacterial activity against Staphylococcus aureus ATCC 6538 after 24 hrs by broth microdilution method; type: functional; conditions: ATCC 6538, 24 h
[48] = system: Candida albicans; assay: Antifungal activity against Candida albicans ATCC 44859 after 24 hrs by broth microdilution method; type: functional; conditions: ATCC 44859, 24 h
[49] = system: Candida tropicalis; assay: Antifungal activity against Candida tropicalis 156 after 48 hrs by broth microdilution method; type: functional; conditions: Candida tropicalis, 156, 48 h
[50] = Cytotoxicity against human HeLa cells assessed as cell viability at 30 uM after 48 hrs by MTT assay; type: cell-based; conditions: read-out: Activity

SMILES: O=[N+]([O-])c1cc(C[Se]c2nnnn2C2CCCCC2)cc([N+](=O)[O-])c1
- viability at 48 h, 30 µM [1]: 7%
- MIC [2]: 1 µM (≈ 0.411 µg/mL)
- IC95 [3]: > 500 µM
- IC50 [4]: > 500 µM
- MIC [5]: 32 µM (≈ 13.2 µg/mL)
- IC50 [6]: > 500 µM
- IC95 [7]: > 500 µM
- IC50 [8]: > 500 µM
- IC95 [9]: > 500 µM
- IC80 [10]: > 500 µM
- IC80 [11]: > 500 µM
- IC95 [12]: > 500 µM
- IC95 [13]: > 500 µM
- viability at 48 h, 30 µM [14]: 125%
- IC80 [15]: > 500 µM
- IC95 [16]: > 500 µM
- MIC [17]: 2 µM (≈ 0.823 µg/mL)
- MIC [18]: 1 µM (≈ 0.411 µg/mL)
- IC95 [19]: > 500 µM
- MIC [20]: 2 µM (≈ 0.823 µg/mL)
- MIC [21]: 32 µM (≈ 13.2 µg/mL)
- IC95 [22]: > 500 µM
- IC95 [23]: > 500 µM
- IC50 [24]: 19 µM
- MIC [25]: 4 µM (≈ 1.65 µg/mL)
- IC80 [26]: > 500 µM
- MIC [27]: 1 µM (≈ 0.411 µg/mL)
- MIC [28]: 4 µM (≈ 1.65 µg/mL)
- IC80 [29]: > 500 µM
- MIC [30]: 2 µM (≈ 0.823 µg/mL)
- IC50 [31]: > 500 µM
- IC95 [32]: > 500 µM
- IC95 [33]: > 500 µM
- IC80 [34]: > 500 µM
- IC80 [35]: > 500 µM
- IC50 [36]: > 30 µM
- IC95 [37]: > 500 µM
- IC50 [38]: > 30 µM
- IC95 [39]: > 500 µM
- IC95 [40]: > 500 µM
- IC50 [41]: > 500 µM
- IC50 [42]: > 30 µM
- viability at 48 h, 30 µM [43]: 87%
- IC50 [44]: > 500 µM
- IC80 [45]: > 500 µM
- IC95 [46]: > 500 µM
- IC95 [47]: > 500 µM
- IC80 [48]: > 500 µM
- IC80 [49]: > 500 µM
- viability at 48 h, 30 µM [50]: 66%

SMILES: O=[N+]([O-])c1cc(C[Se]c2nnnn2Cc2ccccc2)cc([N+](=O)[O-])c1
- viability at 48 h, 30 µM [1]: 41%
- MIC [2]: 1 µM (≈ 0.419 µg/mL)
- IC95 [3]: > 500 µM
- IC50 [4]: > 500 µM
- MIC [5]: 32 µM (≈ 13.4 µg/mL)
- IC50 [6]: > 500 µM
- IC95 [7]: > 500 µM
- IC50 [8]: > 500 µM
- IC95 [9]: > 500 µM
- IC80 [10]: > 500 µM
- IC80 [11]: > 500 µM
- IC95 [12]: > 500 µM
- IC95 [13]: > 500 µM
- viability at 48 h, 30 µM [14]: 70%
- IC80 [15]: > 500 µM
- IC95 [16]: > 500 µM
- MIC [17]: 4 µM (≈ 1.68 µg/mL)
- MIC [18]: 2 µM (≈ 0.839 µg/mL)
- IC95 [19]: > 500 µM
- MIC [20]: 4 µM (≈ 1.68 µg/mL)
- MIC [21]: 32 µM (≈ 13.4 µg/mL)
- IC95 [22]: > 500 µM
- IC95 [23]: > 500 µM
- IC50 [24]: 22 µM
- MIC [25]: 8 µM (≈ 3.35 µg/mL)
- IC80 [26]: > 500 µM
- MIC [27]: 4 µM (≈ 1.68 µg/mL)
- MIC [28]: 8 µM (≈ 3.35 µg/mL)
- IC80 [29]: > 500 µM
- MIC [30]: 2 µM (≈ 0.839 µg/mL)
- IC50 [31]: > 500 µM
- IC95 [32]: > 500 µM
- IC95 [33]: > 500 µM
- IC80 [34]: > 500 µM
- IC80 [35]: > 500 µM
- IC50 [36]: 16.5 µM
- IC95 [37]: > 500 µM
- IC50 [38]: > 30 µM
- IC95 [39]: > 500 µM
- IC95 [40]: > 500 µM
- IC50 [41]: > 500 µM
- IC50 [42]: > 30 µM
- viability at 48 h, 30 µM [43]: 33%
- IC50 [44]: > 500 µM
- IC80 [45]: > 500 µM
- IC95 [46]: > 500 µM
- IC95 [47]: > 500 µM
- IC80 [48]: > 500 µM
- IC80 [49]: > 500 µM
- viability at 48 h, 30 µM [50]: 54%
